Patent US20050003455A1, “Remedies for heart diseases” (priority 2001, published 2005)

Assays:
[1] = tested on: primary cultures of rat myocardial cells; experiment: Staurosporine-induced decrease in cell viability (WST-8) in primary cultures of rat myocardial cells; type: cell-based; details: for cytotoxicity induced in cultured myocardial cells: 1 μM staurosporine, HCO3−-free culture medium versus ordinary culture medium
Text: The myocardial cells used in the experiments were those of primary cultures from rats. In order to prepare primary cultures of myocardial cells, heart was excised from SD rats at day 20 of pregnancy (purchased from Japan SLC Co., Ltd.) and enzyme-digested with collagenase (Worthington Biochemical Corp.) and trypsin (GIBCO BRL, Gaithersberg, Md.) to isolate myocardial cells and make a cell suspension of them. As an ordinary culture medium, D-MEM supplemented with fetal bovine serum (FBS) to give a concentration of 10% (GIBCO BRL, Gaithersberg, Md.) was employed. For checking to see if Cl^−/HCO3^− anion exchangers (AEs) would be involved in apoptosis in cardiovascular cells and in protection from it, Leibovitz's L-15 Medium supplemented with FBS to give a concentration of 10% (GIBCO BRL, Gaithersberg, Md.) was employed as an HCO3^−-free culture medium and the result from it was compared with the result from the ordinary culture medium. The HCO3^−-free culture medium was employed in order to suppress the function of the Cl^−/HCO3^− anion exchangers by depleting HCO3^−. The Cl^−/HCO3^− anion exchangers are widely distributed in erythrocytes and other tissues, AE1 being expressed primarily in erythrocytes and AE3 in myocardial cells and neurons. By coupling the exclusion of intracellular Cl^− to the outside of cells and intake of extracellular HCO3^− into the cells, the exchangers function as an intracellular Cl^− and pH regulating system and they also work as a cell volume regulating system during regulatory volume increase (RVI). In a pathological context, it is speculated that the exchangers participate in the process of myocardial cells' acidification which accompanies ischemia.
A suspension of myocardial cells at a density of 3-5×10^5 cells/mL was dispensed in 24-well multiwell plates (Falcon) in an amount of 0.5 mL per well, or in 96-well multiwell plates (Falcon) in an amount of 0.1 mL per well, or in 12-well multiwell plates (Falcon) in an mount of 1 mL per well. The plates were placed in a CO2 incubator and cultured in 5% CO2 at 37° C. for 2-3 days. The thus cultured cells were used in subsequent experiments.
A control group consisted of three culture media, a cell-free medium (blank), a cell-containing medium alone (D-MEM) and 0.3% DMSO [D-MEM supplemented with 0.3% DMSO (DOJINDO LABORATORIES, Kumamoto, Japan)]. A test group consisted of three culture media containing a drug or drugs under specified conditions, i.e., a solution of 1 μM staurosporine (Sigma) dissolved in 0.3% DMSO, a mixed solution of the 1 μM staurosporine and 125-1000 μM SITS (SIGMA CHEMICAL Co., St. Louis, Mo., USA), and a mixed solution of the 1 μM staurosporine and 62.5-250 μM DIDS (SIGMA CHEMICAL Co., St. Louis, Mo., USA); the culture media of the test group are hereunder referred to as “conditioned culture media”.
Specifically, after aspirating away a culture medium, a fresh medium of the control group or a conditioned culture medium of interest was added in 24-well multiwell plates in an amount of 0.5 mL/well. After adding the conditioned culture medium, the plates were placed in a CO2 incubator and cultured in 5% CO2 at 37° C. for 2-4 hours. When a conditioned culture medium based on the HCO3^−-free culture medium was added, the plates were placed in an atmospheric incubator and cultured at 37° C. […]

[2] = tested on: caspase-3 activity of cultured rat myocardial cells; experiment: Staurosporine-induced increase in caspase-3 activity of cultured myocardial cells (Caspase-3 Assay Kit, Fluorimetric; AMC formation); type: cell-based; details: 1 μM staurosporine + 250 μM DIDS, 12-well multiwell plates, FIG. 5
Description: The caspase-3 activity of the thus prepared cells was measured with Caspase-3 Assay Kit, Fluorimetric (SIGMA CHEMICAL, Co., St. Louis, Mo., USA).
More specifically, 12-well multiwell plates were cultured for 2 hours after adding a conditioned culture solution, which was then removed and further cultivation was effected for an appropriate period, mostly for 2 hours; thereafter, cell lysates were prepared using Caspase-3 Assay Kit, Fluorimetric; in the subsequent stage, the amount of formation of specific fluorochrome 7-amino-4-methylcoumarin (AMC) was measured by means of a fluorometric microplate reader (SPECTRA Fluor, Wako Pure Chemical Industries, Ltd., Osaka, Japan) according to the procedure of measurement with the Kit; and the amount of AMC formation was used as an index of caspase-3 activity. […]

Structure (SMILES)	suppression of the staurosporine-induced drop in cell viability ([1]; 1 μM staurosporine + 62.5, 125 or 250 μM DIDS, 24-well multiwell plates, FIG. 4)	suppression of the staurosporine-induced decrease in cell viability ([1]; HCO3−-free culture medium, 1 μM staurosporine + 62.5, 125 or 250 μM DIDS, 24-well multiwell plates, FIG. 6)	apoptosis suppressing effect on myocardial cells ([1]; overall conclusion from Examples 1-6)	suppression of the staurosporine-induced increase in caspase-3 activity [2]	cytotoxicity induced in cultured myocardial cells ([1]; 24-well multiwell plates, FIG. 6)	cytotoxicity induced in cultured myocardial cells ([1]; 96-well multiwell plates, FIG. 7)
O=S(=O)(O)c1cc(N=C=S)ccc1C=Cc1ccc(N=C=S)cc1S(=O)(=O)O [DIDS, 4,4′-diisothiocyanostilbene-2,2′-disulfonic acid]	suppresses the drop in cell viability in a dose-dependent manner	suppressed the decrease in cell viability in a dose-dependent manner	exhibit the apoptosis suppressing effect on myocardial cells	suppresses the staurosporine-induced increase in caspase-3 activity	–	–
CN[C@@H]1C[C@H]2O[C@@](C)([C@@H]1OC)n1c3ccccc3c3c4c(c5c6ccccc6n2c5c31)C(=O)NC4 [staurosporine]	–	–	–	–	comparable levels of cytotoxicity was induced by staurosporine	comparable levels of cytotoxicity was induced on the 96-well multiwell plates by staurosporine
